From patent publication US7385026B1, “Modified ghrelin polypeptides” (priority 1999, dated 2008)
Where two headings read alike, the source gives them in different places. Peptide text beside a SMILES is read from it. * marks the point of attachment. Octanoyl = CCCCCCCC(=O)*

Biological target: T1, rat GHS-receptor (GHR-R) (Rattus norvegicus, UniProt O08725)
T1 construct: A full-length cDNA for rat GHR-R was obtained by RT-PCR; expressed in transfected cells
Assay: Ca-releasing activity (increase in intracellular calcium) in CHO-GHSR62 cells, FLIPR
Type: cell-based
From the text: To assay an increase in the intracellular calcium ion concentration (Ca-releasing activity) occurring upon binding of a GH secretagogue (GHS) to GHS-receptor (GHR-R), a cell strain expressing rat GHR-R was created in the following manner. A full-length cDNA for rat GHR-R was obtained by RT-PCR (reverse transcriptase-polymerase chain reaction) where a cDNA derived from rat brain was used as template. From the nucleotide sequence of known rat GHR-R [K. K. Mckee, et al, Molecular Endocrinology 11, 415-423 (1997)], sense and antisense primers consisting of the following nucleotide sequences were synthesized.
The amplified cDNA was ligated to vector pcDNAIII (Invitrogen) to construct expression vector GHSR-pcDNAIII. CHO cells were transformed via the expression vector, and the transformed cells stably expressing GHR-R were selected in a medium containing 1 μg/ml G418. […] A change in the intracellular calcium ion concentration (Ca-releasing activity) was measured by an FLIPR system (Molecular Device). Before this measurement, 4×10^4 CHO-GHSR62 cells were put to a 96-well microplate with black wall (Corning Co., Ltd) and cultured for 12 to 15 hours. Then, the cells were incubated with 4 μM fluorescent Fluo4 (Molecular Probe Co., Ltd) for 1 hour and washed four times with Hank's BSS (Hank's Balanced Salt Solution) containing 20 mM Hepes ([N-2-hydroxyethyl]-piperazine-N-[2-ethanesulfonic acid]) and 2.5 mM probenecid, and the Ca-releasing activity was assayed by adding a sample and measuring a change in the fluorescence.
Peptide fragments obtained by partially digested the rat- and human-derived ghrelins by various proteases, or chemically synthesized peptides, were examined for their Ca releasing activity in order to determine a core amino acid sequence and the optimum chain length of a modifying fatty acid necessary for Ca-releasing activity.
The Ca-increasing activities of the ghrelin derivative peptide-type compounds synthesized in Example 10 and the natural ghrelin peptide were measured in the same manner as in Example 1.
In this examination, the intracellular Ca-releasing activity in CHO cells expressing rat GSH receptor was used as the indicator.

[1] = CHO-GHSR62 cells (CHO cells expressing rat GHS receptor), FLIPR, read-out: Ca-releasing activity EC50

T1 sequence (O08725 whole entry): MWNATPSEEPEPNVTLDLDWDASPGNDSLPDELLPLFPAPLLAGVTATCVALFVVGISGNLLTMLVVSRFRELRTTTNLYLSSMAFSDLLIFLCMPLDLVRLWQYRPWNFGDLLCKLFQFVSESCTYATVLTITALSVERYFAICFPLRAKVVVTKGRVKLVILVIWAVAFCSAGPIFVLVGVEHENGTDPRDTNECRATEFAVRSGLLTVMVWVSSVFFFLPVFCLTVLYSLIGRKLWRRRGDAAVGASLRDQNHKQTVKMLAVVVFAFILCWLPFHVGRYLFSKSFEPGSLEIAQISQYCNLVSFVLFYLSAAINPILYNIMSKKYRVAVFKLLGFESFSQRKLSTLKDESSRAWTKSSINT

SMILES | EC50 [1] | further results
CCCCCCCC(=O)OC[C@H](NC(=O)[C@H](CO)NC(=O)CN)C(=O)N[C@@H](Cc1ccccc1)C(=O)N[C@@H](CC(C)C)C(=O)N[C@@H](CO)C(=O)N1CCC[C@H]1C(=O)N[C@@H](CCC(=O)O)C(=O)N[C@@H](Cc1cnc[nH]1)C(=O)N[C@@H](CCC(N)=O)C(=O)N[C@@H](CCCNC(=N)N)C(=O)N[C@H](C(=O)N[C@@H](CCC(N)=O)C(=O)N[C@@H](CCC(N)=O)C(=O)N[C@@H](CCCNC(=N)N)C(=O)N[C@@H](CCCCN)C(=O)N[C@@H](CCC(=O)O)C(=O)N[C@@H](CO)C(=O)N[C@@H](CCCCN)C(=O)N[C@@H](CCCCN)C(=O)N1CCC[C@H]1C(=O)N1CCC[C@H]1C(=O)N[C@@H](C)C(=O)N[C@@H](CCCCN)C(=O)N[C@@H](CC(C)C)C(=O)N[C@@H](CCC(N)=O)C(=O)N1CCC[C@H]1C(=O)N[C@@H](CCCNC(=N)N)C(=O)O)C(C)C [Compound 1, human Ghrelin] | – | EC50 (Ca-releasing activity (EC50, nM), Table 3, Example 9: protease fragments or synthetic peptides, CHO-GHSR62 cells): 2.6 nM; EC50 (Ca-releasing activity EC50, CHO-GHSR62 cells (CHO cells expressing rat GHS receptor), FLIPR): 1.3 nM
CCCCCCCC(=O)OC[C@H](NC(=O)CN)C(=O)N[C@@H](CO)C(=O)N[C@@H](Cc1ccccc1)C(=O)N[C@@H](CC(C)C)C(=O)N[C@@H](CO)C(=O)N1CCC[C@H]1C(=O)N[C@@H](CCC(=O)O)C(=O)N[C@@H](Cc1c[nH]cn1)C(N)=O [Compound 4, [Ser^2(Octanoyl), Ser^3]-Ghrelin (1-9)-amide] (H-GS(Octanoyl)SFLSPEH-NH2) | – | Ca-releasing activity relative to the 3rd-serine octanoyl parent (octanoyl moved from 3rd to 2nd serine): about 1/200
CCCCCCCC(=O)NCC(=O)N[C@@H](CO)C(=O)N[C@@H](CO)C(=O)N[C@@H](Cc1ccccc1)C(=O)N[C@@H](CC(C)C)C(=O)N[C@@H](CO)C(=O)N1CCC[C@H]1C(=O)N[C@@H](CCC(=O)O)C(=O)N[C@@H](Cc1c[nH]cn1)C(N)=O [Compound 6, [N-Octanoyl, Ser^3]-Ghrelin (1-9)-amide] (Octanoyl-GSSFLSPEH-NH2) | > 10000 nM | –
CC(=O)OC[C@H](NC(=O)[C@H](CO)NC(=O)CN)C(=O)N[C@@H](Cc1ccccc1)C(=O)N[C@@H](CC(C)C)C(=O)N[C@@H](CO)C(=O)N1CCC[C@H]1C(=O)N[C@@H](CCC(=O)O)C(=O)N[C@@H](Cc1c[nH]cn1)C(=O)N[C@@H](CCC(N)=O)C(=O)N[C@@H](CCCCN)C(=O)N[C@@H](C)C(=O)N[C@@H](CCC(N)=O)C(=O)N[C@@H](CCC(N)=O)C(=O)N[C@@H](CCCNC(=N)N)C(=O)N[C@@H](CCCCN)C(=O)N[C@@H](CCC(=O)O)C(=O)N[C@@H](CO)C(=O)N[C@@H](CCCCN)C(=O)N[C@@H](CCCCN)C(=O)N1CCC[C@H]1C(=O)N1CCC[C@H]1C(=O)N[C@@H](C)C(=O)N[C@@H](CCCCN)C(=O)N[C@@H](CC(C)C)C(=O)N[C@@H](CCC(N)=O)C(=O)N1CCC[C@H]1C(=O)N[C@@H](CCCNC(=N)N)C(=O)O [Compound 8, [Ser^3(Acetyl)]-rGhrelin] | 780 nM | –
CCCC(=O)OC[C@H](NC(=O)[C@H](CO)NC(=O)CN)C(=O)N[C@@H](Cc1ccccc1)C(=O)N[C@@H](CC(C)C)C(=O)N[C@@H](CO)C(=O)N1CCC[C@H]1C(=O)N[C@@H](CCC(=O)O)C(=O)N[C@@H](Cc1c[nH]cn1)C(=O)N[C@@H](CCC(N)=O)C(=O)N[C@@H](CCCCN)C(=O)N[C@@H](C)C(=O)N[C@@H](CCC(N)=O)C(=O)N[C@@H](CCC(N)=O)C(=O)N[C@@H](CCCNC(=N)N)C(=O)N[C@@H](CCCCN)C(=O)N[C@@H](CCC(=O)O)C(=O)N[C@@H](CO)C(=O)N[C@@H](CCCCN)C(=O)N[C@@H](CCCCN)C(=O)N1CCC[C@H]1C(=O)N1CCC[C@H]1C(=O)N[C@@H](C)C(=O)N[C@@H](CCCCN)C(=O)N[C@@H](CC(C)C)C(=O)N[C@@H](CCC(N)=O)C(=O)N1CCC[C@H]1C(=O)N[C@@H](CCCNC(=N)N)C(=O)O [Compound 10, [Ser^3(Butyryl)]-rGhrelin] | 280 nM | –
CC(C)C[C@H](NC(=O)[C@H](CCCCN)NC(=O)[C@H](C)NC(=O)[C@@H]1CCCN1C(=O)[C@@H]1CCCN1C(=O)[C@H](CCCCN)NC(=O)[C@H](CCCCN)NC(=O)[C@H](CO)NC(=O)[C@H](CCC(=O)O)NC(=O)[C@@H](N)CCCCN)C(=O)N[C@@H](CCC(N)=O)C(=O)N1CCC[C@H]1C(=O)N[C@@H](CCCNC(=N)N)C(=O)O [Compound 19, Ghrelin (16-28)] | > 10000 nM | EC50 (Table 3, Example 9: protease fragments or synthetic peptides, CHO-GHSR62 cells, read-out: Ca-releasing activity (EC50)): > 10000 nM
CCCCCCCC(=O)OC[C@H](NC(=O)[C@H](CO)NC(=O)CN)C(=O)N[C@@H](Cc1ccccc1)C(=O)N[C@@H](CC(C)C)C(=O)N[C@@H](CO)C(=O)N1CCC[C@H]1C(=O)N[C@@H](CCC(=O)O)C(=O)N[C@@H](Cc1c[nH]cn1)C(=O)N[C@@H](CCC(N)=O)C(=O)N[C@@H](CCCCN)C(=O)N[C@@H](C)C(=O)N[C@@H](CCC(N)=O)C(=O)N[C@@H](CCC(N)=O)C(=O)N[C@@H](CCCNC(=N)N)C(=O)O [Compound 21, rGhrelin (1-15)] | 8.6 nM | –

More lines, main results first:

EC50 [1] | SMILES | further results
5.4 nM | CCCCCCCC(=O)OC[C@H](NC(=O)[C@H](CO)NC(=O)CN)C(=O)N[C@@H](Cc1ccccc1)C(=O)N[C@@H](CC(C)C)C(=O)N[C@@H](CO)C(=O)N1CCC[C@H]1C(=O)N[C@@H](CCC(=O)O)C(=O)N[C@@H](Cc1c[nH]cn1)C(N)=O [Compound 3, Ghrelin (1-9)-amide] (H-GSS(Octanoyl)FLSPEH-NH2) | Ca-releasing activity of ghrelin (1-9) after amidation relative to before amidation: about 7 times
2.4 nM | CCCCCCCCCCCC(=O)OC[C@H](NC(=O)[C@H](CO)NC(=O)CN)C(=O)N[C@@H](Cc1ccccc1)C(=O)N[C@@H](CC(C)C)C(=O)N[C@@H](CO)C(=O)N1CCC[C@H]1C(=O)N[C@@H](CCC(=O)O)C(=O)N[C@@H](Cc1c[nH]cn1)C(=O)N[C@@H](CCC(N)=O)C(=O)N[C@@H](CCCCN)C(=O)N[C@@H](C)C(=O)N[C@@H](CCC(N)=O)C(=O)N[C@@H](CCC(N)=O)C(=O)N[C@@H](CCCNC(=N)N)C(=O)N[C@@H](CCCCN)C(=O)N[C@@H](CCC(=O)O)C(=O)N[C@@H](CO)C(=O)N[C@@H](CCCCN)C(=O)N[C@@H](CCCCN)C(=O)N1CCC[C@H]1C(=O)N1CCC[C@H]1C(=O)N[C@@H](C)C(=O)N[C@@H](CCCCN)C(=O)N[C@@H](CC(C)C)C(=O)N[C@@H](CCC(N)=O)C(=O)N1CCC[C@H]1C(=O)N[C@@H](CCCNC(=N)N)C(=O)O [Compound 13, [Ser^3(Lauroyl)]-rGhrelin] | –
6.5 nM | CCCCCCCCCCCCCCCC(=O)OC[C@H](NC(=O)[C@H](CO)NC(=O)CN)C(=O)N[C@@H](Cc1ccccc1)C(=O)N[C@@H](CC(C)C)C(=O)N[C@@H](CO)C(=O)N1CCC[C@H]1C(=O)N[C@@H](CCC(=O)O)C(=O)N[C@@H](Cc1c[nH]cn1)C(=O)N[C@@H](CCC(N)=O)C(=O)N[C@@H](CCCCN)C(=O)N[C@@H](C)C(=O)N[C@@H](CCC(N)=O)C(=O)N[C@@H](CCC(N)=O)C(=O)N[C@@H](CCCNC(=N)N)C(=O)N[C@@H](CCCCN)C(=O)N[C@@H](CCC(=O)O)C(=O)N[C@@H](CO)C(=O)N[C@@H](CCCCN)C(=O)N[C@@H](CCCCN)C(=O)N1CCC[C@H]1C(=O)N1CCC[C@H]1C(=O)N[C@@H](C)C(=O)N[C@@H](CCCCN)C(=O)N[C@@H](CC(C)C)C(=O)N[C@@H](CCC(N)=O)C(=O)N1CCC[C@H]1C(=O)N[C@@H](CCCNC(=N)N)C(=O)O [Compound 14, [Ser^3(Palmitoyl)]-rGhrelin] | –
7 nM | CCCCCCCC(=O)OC[C@H](NC(=O)[C@H](CO)NC(=O)CN)C(=O)N[C@@H](Cc1ccccc1)C(=O)N[C@@H](CC(C)C)C(=O)N[C@@H](CO)C(=O)N1CCC[C@H]1C(=O)N[C@@H](CCC(=O)O)C(=O)N[C@@H](Cc1c[nH]cn1)C(=O)N[C@@H](CCC(N)=O)C(=O)N[C@@H](CCCNC(=N)N)C(=O)N[C@H](C(=O)N[C@@H](CCC(N)=O)C(=O)N[C@@H](CCC(N)=O)C(=O)N[C@@H](CCCNC(=N)N)C(=O)O)C(C)C [Compound 20, hGhrelin (1-15)] | –
1.5 nM | CCCCCCCC(=O)OC[C@H](NC(=O)[C@H](CO)NC(=O)CN)C(=O)N[C@@H](Cc1ccccc1)C(=O)N[C@@H](CC(C)C)C(=O)N[C@@H](CO)C(=O)N1CCC[C@H]1C(=O)N[C@@H](CCC(=O)O)C(=O)N[C@@H](Cc1c[nH]cn1)C(=O)N[C@@H](CCC(N)=O)C(=O)N[C@@H](CCCCN)C(=O)N[C@@H](C)C(=O)N[C@@H](CCC(N)=O)C(=O)N[C@@H](CCCNC(=N)N)C(=O)N[C@@H](CCCCN)C(=O)N[C@@H](CCC(=O)O)C(=O)N[C@@H](CO)C(=O)N[C@@H](CCCCN)C(=O)N[C@@H](CCCCN)C(=O)N1CCC[C@H]1C(=O)N1CCC[C@H]1C(=O)N[C@@H](C)C(=O)N[C@@H](CCCCN)C(=O)N[C@@H](CC(C)C)C(=O)N[C@@H](CCC(N)=O)C(=O)N1CCC[C@H]1C(=O)N[C@@H](CCCNC(=N)N)C(=O)O [Compound 22, [des Gln^14]-rGhrerin] (H-GSS(Octanoyl)FLSPEHQKAQRKESKKPPAKLQPR-OH; N-terminus and C-terminus assumed) | Ca-releasing activity (in words) (CHO-GHSR62 cells, listed as Ghrelin-27): completely the same Ca-releasing activity
